What was measured:
K18 filaments (Y310W) = test: Tryptophan fluorescence depolymerisation assay, K18 filaments; format: biochemical, human; conditions: 60 μM compound
Experimental: (§1) For the fluorescence depolymerisation assay, 60 μM inhibitor compound were added to pre-formed PHFs (10 μM) and incubated overnight at 37° C. PHFs were formed by incubation of tau construct K19/Y310W (50 μM) or K18/ΔK280/Y310W with 12.5 μM heparin in volume of 100 μl at 37° C. in PBS, pH 7.4. Incubation time was three days. The formation of aggregates was observed as a shift of the emission maximum from ˜354 nm to ˜340 nm.
All other compounds yielded emission maxima of the protein after treatment around 350-353 nm, close to the value of soluble tau, indicating a depolymerisation efficiency of about 80-90%.
(§2) FIG. 5: Disassembly of preformed PHFs measured by tryptophan fluorescence shift assay and filter assay. Experiments were performed with tau constructs containing the Y310W mutation as in FIG. 3.

[1] = tested on: PHFs from K18/ΔK280/Y310W; test: Tryptophan fluorescence depolymerisation assay, K18/ΔK280; format: biochemical, human; conditions: 60 μM compound
Experimental: as §1, §2

K19 PHFs = molecular target: T1, K19 PHFs (Homo sapiens, UniProt P10636); test: Depolymerisation of K19 PHFs at prolonged incubation times; format: biochemical; conditions: 0.5 μM compound, after 12 hours
T1 construct: construct K19 containing three repeats; made in house; host or cells: E. coli
Experimental: Untreated controls were measured in parallel and subtracted as background.

[2] = tested on: N2a cells expressing K18/ΔK280; test: Tau aggregation in cells, thioflavine S staining; format: cell-based, mouse; conditions: 15 μM emodin
Experimental: The tau construct K18/ΔK280 was expressed in the mouse neuroblastoma cell line N2a in an inducible manner under the control of the reverse tetracycline-controlled transactivator (rtTA) as described elsewhere (Gossen & Bujard, 2002). The inducible N2a/K18ΔK280 cells were cultured in MEM medium supplemented with 10% fetal calf serum, 2 mM glutamine and 0.1% nonessential amino acids. The expression of K18/ΔK280 was induced by addition 1 μg doxycyclin per 1 ml medium. The effect of aggregation inhibition was observed by adding the inhibitor emodin (15 μM). After 3-7 days the cells were harvested and tested for tau aggregation, thioflavin S fluorescence, and viability.
(§3) The levels and solubility of the K18/ΔK280 tau protein were determined by the method of Greenberg and Davies (1990) which makes use of the insolubility of protein aggregates after treatment with sarkosyl. The supernatant and sarcosyl-insoluble pellets were analysed by Western blotting with the pan-tau antibody K9JA and analysed by densitometry. Aggregation of tau in cells was tested by the fluorescence of thioflavine S. ThS signals were scored in three independent fields containing 40 cells each.
Two parallel cell cultures were incubated, one with 1 μg/ml doxycyclin (to induce the expression of the protein), another with 1 μg/ml doxycyclin and 15 μM emodin for 3 days. […]

PHFs from htau23 = molecular target: T2, PHFs from htau23 (Homo sapiens, UniProt P10636); test: Filter trapping assay, depolymerisation of PHFs; format: biochemical; conditions: PVDF filter, antibody K9JA
T2 construct: made in house; host or cells: E. coli
Experimental: The effect of compounds on the depolymerisation of PHFs was analysed using a filter trapping assay. This assay monitors aggregated tau which is trapped on a membrane filter, whereas the soluble protein is washed through. Therefore the technique preferably detects larger filaments, similar to the ThS assay.
Aggregates of tau were trapped by filtration through a PVDF-membrane (pore diameter 0.45 μm, Schleicher and Schuell, Düren, Germany) adapted to 96-well dot blot apparatus. The PVDF-membrane was wetted with methanol and rinsed with PBS-buffer before incorporated into the dot blot apparatus. The samples were pipetted into 100 μl of PBS and filtered. The membrane was washed three times with PBS before taken out of the apparatus and blocked with 5% milk powder in PBS for 30 minutes in a rotational shaker at room temperature. The polyclonal antibody K9JA was used as primary antibody and incubated at a dilution of 1:20.000 at room temperature for one hour. […] After three times washing with TBS-Tween the signal was detected using the ECL system (Amersham Pharmacia) and pictures were taken with the digital gel documentation system Fuji film BAS3000 (Raytest, Straubenhardt, Germany). Quantification of the signals was performed with the AIDA-software package (Raytest, Straubenhardt, Germany).
(D) Depolymerisation of PHFs from htau23 measured by filter assay. […]

[3] = tested on: N2a cells expressing K18/ΔK280; test: Tau aggregation in cells, sarkosyl extraction and Western blot densitometry; format: cell-based, mouse; conditions: 15 μM emodin
From the text: A crucial test for the application of inhibitors is their effect in cell models of tauopathy. A neuroblastoma (N2a) cell line which allows inducible expression of the tau construct K18ΔK280 under the control of the tet-on transactivator was generated. This construct was chosen because it contains the FTDP17 mutation ΔK280 in the 4-repeat domain K18 which promotes the formation of β-structure and therefore aggregates readily, even in the absence of polyanionic inducers (von Bergen et al., 2001; {Barghorn, 2002).
The tau construct K18/ΔK280 was expressed in the mouse neuroblastoma cell line N2a in an inducible manner under the control of the reverse tetracycline-controlled transactivator (rtTA) as described elsewhere (Gossen & Bujard, 2002). […] After 3-7 days the cells were harvested and tested for tau aggregation, thioflavin S fluorescence, and viability.
as §3, with “each. […]” for “each.”

T2 sequence (P10636 1-352 isoform P10636-2): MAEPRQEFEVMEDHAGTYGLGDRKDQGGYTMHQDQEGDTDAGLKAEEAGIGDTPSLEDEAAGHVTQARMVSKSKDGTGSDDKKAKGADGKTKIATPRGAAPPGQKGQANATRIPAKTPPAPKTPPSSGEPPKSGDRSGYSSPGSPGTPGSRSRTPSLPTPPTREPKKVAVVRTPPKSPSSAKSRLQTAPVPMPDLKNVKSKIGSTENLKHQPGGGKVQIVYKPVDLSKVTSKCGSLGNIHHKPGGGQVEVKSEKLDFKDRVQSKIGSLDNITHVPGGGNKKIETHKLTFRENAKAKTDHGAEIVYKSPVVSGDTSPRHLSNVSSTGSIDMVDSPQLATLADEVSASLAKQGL
T1 sequence (P10636 with tags, fused parts or gaps isoform P10636-2 limits assumed): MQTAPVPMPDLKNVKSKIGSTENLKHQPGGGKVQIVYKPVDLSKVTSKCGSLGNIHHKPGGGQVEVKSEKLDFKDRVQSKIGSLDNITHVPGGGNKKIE

Compound | depolymerisation efficiency, K18 filaments, Trp fluorescence (K18 filaments (Y310W)) [%] | depolymerising PHFs, K18/ΔK280, Trp fluorescence [1] | depolymerisation of K19 PHFs (K19 PHFs) | inhibition of aggregation as measured by ThS [2] | cells with ThS signal ([2]; 3 days induction, without emodin 28%) [%] | DC50 (PHFs from htau23) [nM] | reduction of sarkosyl-insoluble fraction ([3]; 7 days) [fold] | sarkosyl-insoluble fraction of total cellular tau (K18/ΔK280) ([3]; 7 days induction, untreated 14%) [%]
O=C(c1ccccc1)c1ccc(O)c(O)c1O [PHF005, 1-Phenyl-1-(2,3,4-trihydroxy-phenyl)-methanone] | 80 | most potent agent | Nearly no effects |  |  |  |  | 
Cc1cc(O)c2c(c1)C(=O)c1cc(O)cc(O)c1C2=O [Emodin, 1,3,8-Trihydroxy-6-methyl-anthraquinone] |  |  |  | about 2 fold | 15 | ~500 | 5 | 3

Source: patent publication US20060223812A1, “Treating neurodegenerative conditions” (MAX-PLANCK-GESELLSCHAFT ZUR FORDERUNGDER WISSENSCHAFTEN, …, priority 2004, published 2006)
